Results from patent US8809344B2, “Compounds, compositions, and methods for control of hepatitis C viral infections” (priority 2008, dated 2014).

How the values were obtained:
[1] = test system: genotype 1a replicon H/FL-Neo(L+I) (H77 strain); assay: Genotype 1a replicon in Huh7.5 cells, HCV RNA by blot hybridization; format: cell-based; details: Hepatitis C virus, Huh7.5, 72 h
[2] = test system: chimeric APV112 HCV (genotype 2a with genotype 1b NS4B amino acids 53 to 218); assay: HCV APV112 viral infectivity assay in Huh7.5 cells, 3′NTR RNA by realtime quantitative PCR; format: cell-based, hepatitis C virus; details: for Log change in 3′NTR copies relative to 1.0% DMSO (GAPDH normalized): 48 hours; for chimeric APV112 viral infectivity: sensitive genotype 1b NS4B region
Protocol: (§1) Inhibition of HCV infectivity by AP0080978 and its analogs (AP0080977, non-active enantiomer; AP0089652, racemate; and AP0080935, an aromatic, non-optically active analog of AP0080978) was assayed by exposing cells with infectious chimeric HCV virions in the presence of the compounds. This was accomplished by use of an HCV cell culture system essentially as described in Pietschmann, T. et al. (2006) 103(19): 7408-13, Proc. Natl. Acad. Sci. USA; and elsewhere. Two viral constructs were utilized to characterize inhibition of viral infectivity (FIG. 4). Construct APV23 (FL-J6/JFH) is a full-length, chimeric, genotype 2a HCV genome containing the HCV core through the NS2 first transmembrane domain coding region from the J6 HCV isolate linked to the second NS2 transmembrane domain NS3 through NS5B coding region of HCV strain JFH-1, as shown in FIG. 4 (i.e. an HCV chimera with the “C3 Junction” described in Pietschmann, T. et al. (2006) Proc. Natl. Acad. Sci. USA 103(19): 7408-13; see page 7409 and FIG. 2A of Pietschmann, T. et al.). Construct APV112 was generated by replacing nucleotides encoding amino acids 53 to 218 of the NS4B gene of the APV23 sequence with a corresponding sequence from a genotype 1b (Con1 strain).
(§2) Huh7.5 cells were plated at a density of 20,000 cells per well in 96-well plates. The cells were exposed to the chimeric HCV virions at a multiplicity of infection of 0.01. Potential inhibitory compounds were added simultaneously with the chimeric virus. Cells were incubated for 48 hours and then the levels of HCV 3′NTR and GAPDH RNA were quantified by realtime quantitative PCR. Data were analyzed by the comparative Ct method with delta-delta Ct determined relative to 1.0% DMSO. Results in FIGS. 5 and 6 are depicted as log change in 3′NTR copies relative to 1.0% DMSO.

[3] = test system: genotype 1b (Con1 strain) replicon with silent mutation at amino acid 1771; assay: Silent-mutation reporter replicon IVT RNA in Huh7.5 cells; format: cell-based; details: Hepatitis C virus
Excerpt: (§3) To identify nucleotide changes that confer resistance to 80978, replicon RNA was reverse transcribed and amplified from total RNA extracted from 80978-resistant and control Clone A cells. […] One silent mutation at amino acid 1771 was also observed. Each mutation was introduced independently into a stable genotype 1b (Con1 strain) subgenomic reporter replicon plasmid via site-directed mutagenesis. […] The sequence of the wild type NS4B encoding sequence is provided as SEQ ID NO:1, the sequence of the mutated NS4B nucleotide sequence encoding the F1809V mutation is provided as SEQ ID NO:3, and the sequence of the mutated NS4B nucleotide sequence encoding the F1809L mutation is provided as SEQ ID NO:5. The sequence of the wild type NS4B protein is provided as SEQ ID NO:2, the sequence of the mutated NS4B protein with the F1809V mutation is provided as SEQ ID NO:4, and the sequence of the mutated NS4B nucleotide sequence encoding the F1809L mutation is provided as SEQ ID NO:6. […] A differential response was observed between cells electroporated with different replicon RNAs.

[4] = test system: genotype 1b (Con1 strain) replicon with NS4B S1949Y mutation; assay: S1949Y mutant reporter replicon IVT RNA in Huh7.5 cells; format: cell-based; details: Hepatitis C virus
Excerpt: as §3

[5] = test system: chimeric APV23 (FL-J6/JFH) genotype 2a HCV; assay: HCV APV23 viral infectivity assay in Huh7.5 cells, 3′NTR RNA by realtime quantitative PCR; format: cell-based, hepatitis C virus; details: FIG. 6, genotype 2a NS4B coding region
Protocol: as §1, §2

O=C(NCc1cccs1)c1nn2c(c1Cl)N[C@H](c1ccco1)C[C@@H]2C(F)(F)F (single isomer, unassigned) [Compound 80978]
EC50 [1]: 7800 nM
potency in viral infectivity assays relative to HCV replicon assays [2]: significantly more potent
greater log change relative to the log change of the 89652 racemate ([2]; 0.02 μM, APV112): 5.3 fold
Log change in 3′NTR copies relative to 1.0% DMSO (GAPDH normalized) ([2]; 0.02 μM, APV112): −0.79
Log change in 3′NTR copies relative to 1.0% DMSO (GAPDH normalized) ([2]; 0.07 μM, APV112): −1.29
Log change in 3′NTR copies relative to 1.0% DMSO (GAPDH normalized) ([2]; 0.22 μM, APV112): −1.52
Log change in 3′NTR copies relative to 1.0% DMSO (GAPDH normalized) ([2]; 0.67 μM, APV112): −1.67
Log change in 3′NTR copies relative to 1.0% DMSO (GAPDH normalized) ([2]; 2 μM, APV112): −1.49
potency relative to control HCV inhibitors 2′CMeA, VX-950, cyclosporin A and a-CD81 antibody (JS81) ([2]; FIG. 5, APV112): significantly more potent
chimeric APV112 viral infectivity ([2]; FIG. 5, listed as AP 80978): able to inhibit
chimeric APV112 viral infectivity ([2]; FIG. 5, listed as AP0080978): reduced
EC50 [3]: 240 nM
EC50 [4]: 410 nM
chimeric APV23 viral infectivity ([5]; listed as AP 80978): resistant
chimeric APV23 viral infectivity ([5]; listed as AP0080978): unaffected
